Laboratory results: patent US9833497B2, “Human originated EGF domain proteins and use of the same” (CHENGDU SOURCEBIO LIMITED-LIABILITY COMPANY, priority 2013, dated 2017)

Columns and labels:
Format in all cases: cell-based
Proteus mirabilis = assay: MIC against Gram-negative bacteria: Proteus mirabilis; settings: for MIC P. mirabilis / MIC (μg/mL) P. mirabilis: 5×10^5 CFU/mL; for MIC (μg/mL) P. mirabilis: Proteus mirabilis; for MIC: P. mirabilis
Procedure, shortened: (§1)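 LB broth cultures at McFarland 0.5, spun down, resuspended, diluted to 5×10^5 CFU/mL final. Two-fold serial dilutions of purified human EGF domain proteins, triplicate. 37° C, 175 rpm shaking. Endpoint: no visible growth.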

Enterobacter cloacae = assay: MIC against Gram-negative bacteria: Enterobacter cloacae; settings: for MIC E. cloacae / MIC (μg/mL) E. cloacae: 5×10^5 CFU/mL; for MIC (μg/mL) E. cloacae: Enterobacter cloacae; for MIC: E. cloacae
Procedure, shortened: as §1

Pseudomonas aeruginosa = assay: MIC against Gram-negative bacteria: Pseudomonas aeruginosa; settings: for MIC P. aeruginosa / MIC (μg/mL) P. aeruginosa: 5×10^5 CFU/mL; for MIC (μg/mL) P. aeruginosa: Pseudomonas aeruginosa; for MIC: P. aeruginosa
Procedure, shortened: as §1

E. coli BL21 = assay: MIC against Gram-negative bacteria: E. coli BL21; settings: for MIC E. coli BL21 / MIC (μg/mL) E. coli BL21: 5×10^5 CFU/mL; for MIC (μg/mL) E. coli BL21 / MIC: E. coli BL21
Procedure, shortened: as §1

Klebsiella pneumonia = assay: MIC against Gram-negative bacteria: Klebsiella pneumonia; settings: for MIC K. pneumonia / MIC (μg/mL) K. pneumonia: 5×10^5 CFU/mL; for MIC (μg/mL) K. pneumonia: Klebsiella pneumonia; for MIC: K. pneumonia
Procedure, shortened: as §1

Aeromonas hydrophila = assay: MIC against Gram-negative bacteria: Aeromonas hydrophila; settings: for MIC A. hydrophila / MIC (μg/mL) A. hydrophila: 5×10^5 CFU/mL; for MIC (μg/mL) A. hydrophila: Aeromonas hydrophila; for MIC: A. hydrophila
Procedure, shortened: as §1

Citrobacter diversus = assay: MIC against Gram-negative bacteria: Citrobacter diversus; settings: for MIC C. diversus / MIC (μg/mL) C. diversus: 5×10^5 CFU/mL; for MIC (μg/mL) C. diversus: Citrobacter diversus; for MIC: C. diversus
Procedure, shortened: as §1

Proteus vulgaris = assay: MIC against Gram-negative bacteria: Proteus vulgaris; settings: for MIC P. vulgaris / MIC (μg/mL) P. vulgaris: 5×10^5 CFU/mL; for MIC (μg/mL) P. vulgaris: Proteus vulgaris; for MIC: P. vulgaris
Procedure, shortened: as §1

E. coli DH5α = assay: Antibacterial activity: MIC and growth curve against E. coli DH5α in 96-well plate; settings: minimal inhibitory concentration against E. coli DH5α; 96-well plate, 5×10^5 CFU/mL, 37° C., judged after 8 h
Procedure, shortened: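 Log-phase DH5α (OD600 about 0.5, 37° C, 185 rpm in LB) was pelleted, resuspended in fresh LB and seeded at 5×10^5 CFU/mL with recombinant protein at 50, 25 and 12.5 μg/mL (two-fold series), in triplicate. Plates were shaken at 175 rpm, 37° C, and OD600 was read every 30 min. MIC was the lowest concentration with no growth.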

Serratia marcescens = assay: MIC against Gram-negative bacteria: Serratia marcescens; settings: for MIC S. marcescens / MIC (μg/mL) S. marcescens: 5×10^5 CFU/mL; for MIC (μg/mL) S. marcescens: Serratia marcescens; for MIC: S. marcescens
Procedure, shortened: as §1

Moraxella catarrhalis = assay: MIC against Gram-negative bacteria: Moraxella catarrhalis; settings: for MIC M. catarrhalis / MIC (μg/mL) M. catarrhalis: 5×10^5 CFU/mL; for MIC (μg/mL) M. catarrhalis: Moraxella catarrhalis; for MIC: M. catarrhalis
Procedure, shortened: as §1

[1] = 10 h cultivation at 37° C., two-fold serial dilution

Row | Substance | MIC (E. coli DH5α) [µg/mL] | MIC (μg/mL) P. mirabilis (Proteus mirabilis; 96-well plate, 37° C., 10 h) [µg/mL] | MIC (μg/mL) E. cloacae (Enterobacter cloacae; 96-well plate, 37° C., 10 h) [µg/mL] | MIC (μg/mL) P. aeruginosa (Pseudomonas aeruginosa; 96-well plate, 37° C., 10 h) [µg/mL] | MIC (μg/mL) E. coli BL21 (E. coli BL21; 96-well plate, 37° C., 10 h) [µg/mL] | MIC (μg/mL) K. pneumonia (Klebsiella pneumonia; 96-well plate, 37° C., 10 h) [µg/mL] | MIC (μg/mL) A. hydrophila (Aeromonas hydrophila; 96-well plate, 37° C., 10 h) [µg/mL] | MIC (μg/mL) C. diversus (Citrobacter diversus; 96-well plate, 37° C., 10 h) [µg/mL] | MIC (μg/mL) P. vulgaris (Proteus vulgaris; 96-well plate, 37° C., 10 h) [µg/mL] | MIC (μg/mL) S. marcescens (Serratia marcescens; 96-well plate, 37° C., 10 h) [µg/mL] | MIC (μg/mL) M. catarrhalis (Moraxella catarrhalis; 96-well plate, 37° C., 10 h) [µg/mL] | MIC (Proteus mirabilis; 10 h cultivation at 37° C.) [µg/mL] | MIC (Enterobacter cloacae; 10 h cultivation at 37° C.) [µg/mL] | MIC (Pseudomonas aeruginosa; 10 h cultivation at 37° C.) [µg/mL] | MIC (E. coli BL21; 10 h cultivation at 37° C.) [µg/mL] | MIC (Klebsiella pneumonia; 10 h cultivation at 37° C.) [µg/mL] | MIC (Aeromonas hydrophila; 10 h cultivation at 37° C.) [µg/mL] | MIC (Citrobacter diversus; 10 h cultivation at 37° C.) [µg/mL] | MIC (Proteus vulgaris; 10 h cultivation at 37° C.) [µg/mL] | MIC (Serratia marcescens; 10 h cultivation at 37° C.) [µg/mL] | also measured
1 | PRT654 (DVNECMGEEHCAPHGECLNSHGSFFCLCAPGFVSAEGGTSCQ; listed as Homo sapiens) | 12.5 | – | – | – | – | – | – | – | – | – | – | – | – | – | – | – | – | – | – | – | MIC P. mirabilis (Proteus mirabilis; 96-well plate, 37° C., 10 h): 25 µg/mL; MIC E. cloacae (Enterobacter cloacae; 96-well plate, 37° C., 10 h): 12.5 µg/mL; MIC P. aeruginosa (Pseudomonas aeruginosa; 96-well plate, 37° C., 10 h): 12.5 µg/mL; MIC E. coli BL21 (E. coli BL21; 96-well plate, 37° C., 10 h): 50 µg/mL; MIC K. pneumonia (Klebsiella pneumonia; 96-well plate, 37° C., 10 h): 50 µg/mL; MIC A. hydrophila (Aeromonas hydrophila; 96-well plate, 37° C., 10 h): 50 µg/mL; MIC C. diversus (Citrobacter diversus; 96-well plate, 37° C., 10 h): 12.5 µg/mL; MIC P. vulgaris (Proteus vulgaris; 96-well plate, 37° C., 10 h): 12.5 µg/mL; MIC S. marcescens (Serratia marcescens; 96-well plate, 37° C., 10 h): 25 µg/mL; MIC M. catarrhalis (Moraxella catarrhalis; 96-well plate, 37° C., 10 h): 50 µg/mL
2 | PRT10 (NCSAQCHNHGVCNHKQECHCHAGWAPPHCA; listed as Homo sapiens) | 25 | 12.5 | 12.5 | 12.5 | 50 | 50 | 50 | 25 | 25 | 12.5 | 12.5 | – | – | – | – | – | – | – | – | – | –
3 | PRT77 (RSGRCTPGVCKNGGTCVNLLVGGFKCDCPSGDFEKPYCQ; listed as Homo sapiens) | 25 | 50 | 25 | 25 | 12.5 | 50 | 12.5 | 50 | 50 | 50 | 12.5 | – | – | – | – | – | – | – | – | – | –
4 | PRT897 (DPNPCLSTPCKNAGTCHVVDRRGVADYACSCALGFSGPLCL; listed as Homo sapiens) | 50 | – | – | – | – | – | – | – | – | – | – | 25 | 12.5 | 12.5 | 25 | 50 | 50 | 12.5 | 12.5 | 25 | MIC (Moraxella catarrhalis; 10 h cultivation at 37° C.): 50 µg/mL
5 | PRT933 (HRDPCEKNRCQNGGTCVAQAMLGKATCRCASGFTGEDCQ; listed as Homo sapiens) | 12.5 | – | – | – | – | – | – | – | – | – | – | 25 | 25 | 12.5 | 25 | 50 | 12.5 | 25 | 12.5 | 50 | MIC (Moraxella catarrhalis; 10 h cultivation at 37° C.): 50 µg/mL
6 | PRT1085 (HARKCNETAKSYCVNGGVCYYIEGINQLSCKCPNGFFGQRCL; listed as Homo sapiens) | 25 | – | – | – | – | – | – | – | – | – | – | – | – | – | – | – | – | – | – | – | MIC P. mirabilis (Proteus mirabilis; [1]): 12.5 µg/mL; MIC E. cloacae (Enterobacter cloacae; [1]): 12.5 µg/mL; MIC P. aeruginosa (Pseudomonas aeruginosa; [1]): 12.5 µg/mL; MIC E. coli BL21 (E. coli BL21; [1]): 12.5 µg/mL; MIC K. pneumonia (Klebsiella pneumonia; [1]): 50 µg/mL; MIC A. hydrophila (Aeromonas hydrophila; [1]): 50 µg/mL; MIC C. diversus (Citrobacter diversus; [1]): 12.5 µg/mL; MIC P. vulgaris (Proteus vulgaris; [1]): 50 µg/mL; MIC S. marcescens (Serratia marcescens; [1]): 25 µg/mL; MIC M. catarrhalis (Moraxella catarrhalis; [1]): 50 µg/mL
